Legend:
[1] = molecular target: T1, recombinant human mGluR4a receptors (Homo sapiens, UniProt Q14833); assay: mGluR4 assay on HEK-expressing human mGluR4 (fluorescent cell based Ca2+ mobilization assay, FLIPR); conditions: HEK-293 cells expressing hmGluR4; enhancement of EC25 glutamate response; mean of at least three independent experiments in duplicate; read-out: Ca^2+ Flux (mean EC50)
T1 construct: expressed in transfected cells
Description: mGluR4 Assay on HEK-Expressing Human mGluR4
The compounds of the present invention are positive allosteric modulators of mGluR4 receptor. Their activity was examined on recombinant human mGluR4a receptors by detecting changes in intracellular Ca^2+ concentration, using the fluorescent Ca^2+-sensitive dye Fluo4-(AM) and a Fluorometric Imaging Plate Reader (FLIPR, Molecular Devices, Sunnyvale, Calif.).
The cDNA encoding the human metabotropic glutamate receptor (hmGluR4), (accession number NM_000841.1, NCBI Nucleotide database browser), was subcloned into an expression vector containing also the Hygromycin resistance gene. In parallel, the cDNA encoding a G protein allowing redirection of the activation signal to intracellular calcium flux was subcloned into a different expression vector containing also the Puromycin resistance gene. Transfection of both these vectors into HEK293 cells with PolyFect reagent (Qiagen) according to supplier's protocol, and hygromycin and puromycin treatment allowed selection of antibiotic resistant cells which had integrated stably one or more copies of the plasmids. Positive cellular clones expressing hmGluR4 were identified in a functional assay measuring changes in calcium flux in response to glutamate or selective known mGluR4 orthosteric agonists and antagonists. HEK-293 cells expressing hmGluR4 were maintained in media containing DMEM, dialyzed Fetal Calf Serum (10%), Glutamax™ (2 mM), Penicillin (100 units/mL), Streptomycin (100 μg/mL), Geneticin (100 μg/mL) and Hygromycin-B (40 μg/mL) and Puromycin (1 μg/mL) at 37° C./5% CO2.
Human mGluR4 HEK-293 cells were plated out 24 hours prior to FLIPR^384 assay in black-walled, clear-bottomed, poly-L-ornithine-coated 384-well plates at a density of 25,000 cells/well in a glutamine/glutamate free DMEM medium containing foetal bovine serum (10%), penicillin (100 units/mL) and streptomycin (100 μg/mL) at 37° C./5% CO2.
On the day of the assay, the medium was aspirated and the cells were loaded with a 3 μM solution of Fluo4-AM (LuBioScience, Lucerne, Switzerland) in 0.03% pluronic acid. After 1 hour at 37° C./5% CO2, the non incorporated dye was removed by washing cell plate with the assay buffer and the cells were left in the dark at it for six hours before testing. All assays were performed in a pH 7.4 buffered-solution containing 20 mM HEPES, 143 mM NaCl, 6 mM KCl, 1 mM MgSO4, 1 mM CaCl2, 0.125 mM sulfapyrazone and 0.1% glucose.
After 10 s of basal fluorescence recording, various concentrations of the compounds of the invention were added to the cells. Changes in fluorescence levels were first monitored for 180 s in order to detect any agonist activity of the compounds. Then the cells were stimulated by an EC25 glutamate concentration for an additional 110 s in order to measure enhancing activities of the compounds of the invention. EC25 glutamate concentration is the concentration giving 25% of the maximal glutamate response.
The concentration-response curves of representative compounds of the present invention were generated using the Prism GraphPad software (Graph Pad Inc, San Diego, USA). The curves were fitted to a four-parameter logistic equation:
(Y=Bottom+(Top−Bottom)/(1+10̂((Log EC50-X)*Hill Slope)
allowing the determination of EC50 values.
The Table 3 below represents the mean EC50 obtained from at least three independent experiments of selected molecules performed in duplicate.

T1 sequence (Q14833 33-912): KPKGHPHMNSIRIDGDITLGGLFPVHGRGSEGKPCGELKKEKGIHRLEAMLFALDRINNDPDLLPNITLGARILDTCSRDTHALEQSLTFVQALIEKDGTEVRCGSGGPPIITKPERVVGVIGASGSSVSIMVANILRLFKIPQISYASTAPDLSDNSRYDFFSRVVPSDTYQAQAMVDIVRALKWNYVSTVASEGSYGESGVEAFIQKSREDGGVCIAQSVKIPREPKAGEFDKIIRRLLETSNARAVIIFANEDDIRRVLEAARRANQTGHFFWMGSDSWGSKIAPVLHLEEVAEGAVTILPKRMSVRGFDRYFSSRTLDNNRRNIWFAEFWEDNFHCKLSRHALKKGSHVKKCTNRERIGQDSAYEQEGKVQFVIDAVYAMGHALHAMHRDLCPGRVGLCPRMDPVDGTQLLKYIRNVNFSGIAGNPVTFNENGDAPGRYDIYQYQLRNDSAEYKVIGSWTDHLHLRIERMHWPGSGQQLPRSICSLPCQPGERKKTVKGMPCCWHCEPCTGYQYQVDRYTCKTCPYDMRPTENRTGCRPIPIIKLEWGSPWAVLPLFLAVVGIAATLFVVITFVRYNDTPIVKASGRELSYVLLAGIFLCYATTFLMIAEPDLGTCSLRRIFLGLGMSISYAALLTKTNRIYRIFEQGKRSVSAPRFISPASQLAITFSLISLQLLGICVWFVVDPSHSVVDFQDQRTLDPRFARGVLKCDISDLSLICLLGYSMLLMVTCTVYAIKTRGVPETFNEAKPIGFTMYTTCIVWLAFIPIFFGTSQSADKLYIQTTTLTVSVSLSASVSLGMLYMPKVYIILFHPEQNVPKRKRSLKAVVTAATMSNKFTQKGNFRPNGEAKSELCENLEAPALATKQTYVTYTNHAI

| Compound | EC50 [1] [nM] | melting point [°C] |
| --- | --- | --- |
| COc1ccc(F)cc1-c1n[nH]cc1-c1csc(Nc2nccc(C)n2)n1 [Compound 1-5, 4-(3-(5-Fluoro-2-methoxyphenyl)-1H-pyrazol-4-yl)-N-(4-methylpyrimidin-2-yl)thiazol-2-amine] | 100 to 1000 | 247 |
| CC(=O)c1sc(Nc2nccc(C)n2)nc1-c1cn[nH]c1 [Compound 1-46, 1-(2-(4-Methylpyrimidin-2-ylamino)-4-(1H-pyrazol-4-yl)thiazol-5-yl)ethanone] | 100 to 1000 | 288 to 291 |
| Cc1ccnc(Nc2nc(-c3c[nH]nc3C(=O)c3ccccc3)cs2)n1 [Compound 1-25, (4-(2-(4-Methylpyrimidin-2-ylamino)thiazol-4-yl)-1H-pyrazol-3-yl)(phenyl)methanone] |  | 254 to 255 |
| Cc1ccnc(Nc2nc(-c3cn[nH]c3C(=O)C3CC3)cs2)n1 [Compound 1-27, Cyclopropyl(4-(2-(4-methylpyrimidin-2-ylamino)thiazol-4-yl)-1H-pyrazol-5-yl)methanone] | 100 to 1000 | 239 to 240 |
| CCOc1sc(Nc2nccc(C)n2)nc1-c1cn[nH]c1 [Compound 1-47, 5-Ethoxy-N-(4-methylpyrimidin-2-yl)-4-(1H-pyrazol-4-yl)thiazol-2-amine] | < 100 |  |
| Cc1ccnc(Nc2nc(-c3c[nH]nc3-c3cccc(C(N)=O)c3)cs2)n1 [Compound 1-22, 3-(4-(2-(4-Methylpyrimidin-2-ylamino)thiazol-4-yl)-1H-pyrazol-3-yl)benzamide] | 1000 to 10000 |  |
| Cc1ccnc(Nc2nc(-c3c[nH]nc3-c3cccc(N(C)C)c3)cs2)n1 [Compound 1-30, 4-(3-(3-(Dimethylamino)phenyl)-1H-pyrazol-4-yl)-N-(4-methylpyrimidin-2-yl)thiazol-2-amine] | 1000 to 10000 | 239 to 241 |
| Cc1ccnc(Nc2nc(-c3c[nH]nc3-c3cncc(C(C)(C)O)c3)cs2)n1 [Compound 1-14, 2-(5-(4-(2-(4-Methylpyrimidin-2-ylamino)thiazol-4-yl)-1H-pyrazol-3-yl)pyridin-3-yl)propan-2-ol] | 1000 to 10000 |  |
| 3-(3-(2-(Pyrimidin-2-ylamino)thiazol-4-yl)-1H-pyrazol-4-yl)benzonitrile [Compound 1-43] | < 100 |  |
| COc1ccccc1-c1n[nH]cc1-c1csc(Nc2nccc(C)n2)n1 [Compound 1-11, 4-(3-(2-Methoxyphenyl)-1H-pyrazol-4-yl)-N-(4-methylpyrimidin-2-yl)thiazol-2-amine] | 1000 to 10000 |  |
| Cc1ccnc(Nc2nc(-c3c[nH]nc3C(O)c3ccccc3)cs2)n1 (centres unmarked) [Compound 1-26, (4-(2-(4-Methylpyrimidin-2-ylamino)thiazol-4-yl)-1H-pyrazol-3-yl)(phenyl)methanol] | 1000 to 10000 | 249.5 |
| Cc1nc(Nc2nc(-c3cn[nH]c3)c(C#N)s2)ns1 [Compound 1-44, 2-(5-Methyl-1,2,4-thiadiazol-3-ylamino)-4-(1H-pyrazol-4-yl)thiazole-5-carbonitrile] | < 100 |  |
| Cc1ccnc(Nc2nc(-c3c[nH]nc3-c3cccc(C#N)c3)cs2)n1 [Compound 1-4, 3-(4-(2-(4-Methylpyrimidin-2-ylamino)thiazol-4-yl)-1H-pyrazol-3-yl)benzonitrile] | < 100 |  |
| COC(C)c1[nH]ncc1-c1csc(Nc2nccc(C)n2)n1 (centres unmarked) [Compound 1-29, 4-(5-(1-Methoxyethyl)-1H-pyrazol-4-yl)-N-(4-methylpyrimidin-2-yl)thiazol-2-amine] | 100 to 1000 |  |
| CCOc1ccccc1-c1n[nH]cc1-c1csc(Nc2nccc(C)n2)n1 [Compound 1-23, 4-(3-(2-Ethoxyphenyl)-1H-pyrazol-4-yl)-N-(4-methylpyrimidin-2-yl)thiazol-2-amine] | 1000 to 10000 |  |
